Measured values as given in patent publication US20080227803A1, “Indolomorphinan Derivative Having Carboxy in 6'-Position” (SHIOONOGI & CO., LTD., a legal entity of Japan, priority 2004, published 2008).

Legend:
[1] = system: retching and emesis induced by morphine; assay: Effect on the retching and emesis induced by morphine in ferrets; type: in vivo; conditions: for Duration / Occurrence times / Latent period: mean ± SE; for Latent period: no symptom = 30 min; for Number of individuals with the symptom/Number of cases: morphine 0.6 mg/kg s.c., 30 min observation
Description: About 30 minutes after feeding, ferrets were placed into observation cages and administered with the test compound. The test compound was dissolved into 15% Solutol (Registered trademark) HS15 containing 5% of N,N-dimethylacetamide and 5% of N-methyl-glucamine, and administered at 5 mg/kg. Thirty minutes after administration of the test compound solution, morphine at 0.6 mg/kg was subcutaneously administered in a solution volume of 1 mL/kg, and the retching and emesis symptoms were visually observed for 30 minutes after administration of morphine.
The frequency, latency (the period from the administration of morphine to the initial occurrence of emetic symptom) and duration (the period from the initial emesis to the final emesis) of retching (rhythmical contraction of abdomen), emesis (emetic behavior to discharge the vomit or similar behavior) and both the symptoms were tabulated.
Meanwhile, the latency of a case showing no emesis was assumed to be 30 minutes that were the longest time of observation, and a duration of less than 1 minute after the occurrence of emesis was expressed as 1 minute for the sake of convenience.

opioid δ receptor = target: T1, opioid δ receptor (Rattus norvegicus, UniProt P33533); assay: Opioid receptor binding assay, [3H]-DADLE, rat cerebrum membrane fraction
T1 construct: Four hundred and eighty microliters of the rat cerebrum membrane fraction; from tissue; host or cells: rat (Slc:SD) cerebrum, crude membrane fraction

[2] = Retching + emesis, I-1 0.05 mg/kg
[3] = Retching + emesis, I-1 0.5 mg/kg

T1 sequence (P33533 whole entry): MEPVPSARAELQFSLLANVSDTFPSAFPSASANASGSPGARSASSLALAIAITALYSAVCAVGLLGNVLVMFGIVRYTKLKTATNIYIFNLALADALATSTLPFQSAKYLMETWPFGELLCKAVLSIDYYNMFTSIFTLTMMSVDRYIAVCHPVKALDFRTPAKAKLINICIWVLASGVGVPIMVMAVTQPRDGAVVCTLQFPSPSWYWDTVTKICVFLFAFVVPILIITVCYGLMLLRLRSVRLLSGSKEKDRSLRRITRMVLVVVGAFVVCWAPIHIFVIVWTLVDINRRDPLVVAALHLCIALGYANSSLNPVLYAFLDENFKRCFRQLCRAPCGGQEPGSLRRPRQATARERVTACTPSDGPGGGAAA

For O=C(O)c1ccc2c3c([nH]c2c1)[C@@H]1Oc2c(O)ccc4c2[C@@]12CCN(CC1CC1)[C@H](C4)[C@]2(O)C3 [Compound I-1, 17-cyclopropylmethyl-6,7-didehydro-4,5α-epoxy-3,14β-dihydroxy-6′-carboxy-6,7-2′,3′-indolomorphinan], the Duration ([1]; Emesis, I-1 0.05 mg/kg) was 0 ± 0 min, the Occurrence times ([1]; Emesis, I-1 0.05 mg/kg) was 0 ± 0 and the Latent period ([1]; Emesis, I-1 0.05 mg/kg) was 30 ± 0 min. The “Number of individuals with the symptom/Number of cases” value ([1]; Emesis, I-1 0.05 mg/kg) was 0/6, the Duration ([1]; Emesis, I-1 0.5 mg/kg) was 0 ± 0 min and the Occurrence times ([1]; Emesis, I-1 0.5 mg/kg) was 0 ± 0. For the same molecule, the Latent period ([1]; Emesis, I-1 0.5 mg/kg) was 30 ± 0 min, the “Number of individuals with the symptom/Number of cases” value ([1]; Emesis, I-1 0.5 mg/kg) was 0/6 and the Duration ([1]; Emesis, I-1 5 mg/kg) was 0 ± 0 min. The Occurrence times ([1]; Emesis, I-1 5 mg/kg) was 0 ± 0, the Latent period ([1]; Emesis, I-1 5 mg/kg) was 30 ± 0 min and the “Number of individuals with the symptom/Number of cases” value ([1]; Emesis, I-1 5 mg/kg) was 0/6. For the same molecule, the Duration [1, 2] was 0 ± 0 min, the Occurrence times [1, 2] was 0 ± 0 and the Latent period [1, 2] was 30 ± 0 min. For the same molecule, the “Number of individuals with the symptom/Number of cases” value [1, 2] was 0/6, the Duration [1, 3] was 0 ± 0 min and the Occurrence times [1, 3] was 0 ± 0. For the same molecule, the Latent period [1, 3] was 30 ± 0 min, the “Number of individuals with the symptom/Number of cases” value [1, 3] was 0/6 and the Duration ([1]; Retching + emesis, I-1 5 mg/kg) was 0 ± 0 min. The Occurrence times ([1]; Retching + emesis, I-1 5 mg/kg) was 0 ± 0, the Latent period ([1]; Retching + emesis, I-1 5 mg/kg) was 30 ± 0 min and the “Number of individuals with the symptom/Number of cases” value ([1]; Retching + emesis, I-1 5 mg/kg) was 0/6. It also gave a Duration ([1]; Retching, I-1 0.05 mg/kg) of 0 ± 0 min, an Occurrence times ([1]; Retching, I-1 0.05 mg/kg) of 0 ± 0 and a Latent period ([1]; Retching, I-1 0.05 mg/kg) of 30 ± 0 min. For the same molecule, the “Number of individuals with the symptom/Number of cases” value ([1]; Retching, I-1 0.05 mg/kg) was 0/6, the Duration ([1]; Retching, I-1 0.5 mg/kg) was 0 ± 0 min and the Occurrence times ([1]; Retching, I-1 0.5 mg/kg) was 0 ± 0. The Latent period ([1]; Retching, I-1 0.5 mg/kg) was 30 ± 0 min, the “Number of individuals with the symptom/Number of cases” value ([1]; Retching, I-1 0.5 mg/kg) was 0/6 and the Duration ([1]; Retching, I-1 5 mg/kg) was 0 ± 0 min. The Occurrence times ([1]; Retching, I-1 5 mg/kg) was 0 ± 0, the Latent period ([1]; Retching, I-1 5 mg/kg) was 30 ± 0 min and the “Number of individuals with the symptom/Number of cases” value ([1]; Retching, I-1 5 mg/kg) was 0/6. The Ki (opioid δ receptor) was 0.62 nM.
For CC(C)(C)C(=O)OCOC(=O)c1ccc2c3c([nH]c2c1)[C@@H]1Oc2c(O)ccc4c2[C@@]12CCN(CC1CC1)[C@H](C4)[C@]2(O)C3 [Compound I-2], the Ki (opioid δ receptor) was 1.7 nM.
With Cc1oc(=O)oc1COC(=O)c1ccc2c3c([nH]c2c1)[C@@H]1Oc2c(O)ccc4c2[C@@]12CCN(CC1CC1)[C@H](C4)[C@]2(O)C3 [Compound I-3] the Ki (opioid δ receptor) was 1.06 nM.
CCCC(=O)OCOC(=O)c1ccc2c3c([nH]c2c1)[C@@H]1Oc2c(O)ccc4c2[C@@]12CCN(CC1CC1)[C@H](C4)[C@]2(O)C3 [Compound I-4] gave a Ki (opioid δ receptor) of 1.14 nM.
Work on CC(=O)OC(C)OC(=O)c1ccc2c3c([nH]c2c1)[C@@H]1Oc2c(O)ccc4c2[C@@]12CCN(CC1CC1)[C@H](C4)[C@]2(O)C3 (stereo partly drawn) [Compound I-8] yielded a Ki (opioid δ receptor) of 1.38 nM.
Work on CC(OC(=O)c1ccc2c3c([nH]c2c1)[C@@H]1Oc2c(O)ccc4c2[C@@]12CCN(CC1CC1)[C@H](C4)[C@]2(O)C3)OC(=O)C(C)C (stereo partly drawn) [Compound I-9] yielded a Ki (opioid δ receptor) of 1.25 nM.
